Consider 6 molecules from patent US20250120967A1, “TYROSINE KINASES INHIBITORS AND USES THEREOF” (GREAT NOVEL THERAPEUTICS BIOTECH & MEDICALS CORPORATION, priority 2023, published 2025).

In test [1] the test system is A549 cells. Kind of test: In vitro cytotoxicity assay (MTT, 72 h). It is filed as cell-based. Particulars: Homo sapiens, growth inhibition. As to the method:
(§1) Six different cell lines were used, including human breast cancer cell lines MDA-MB-231 (6×10^3) and MDA-MB-453 (2.4×10^4), human colorectal cell line SW48 (2.4×10^4), human breast epithelial cell line M10 (6×10^3), human cancer cell line A549 (1.4×10^3), and murine colorectal carcinoma tumors CT26 (6×10^3), which were seeded in a 96-well plate. […] After 72 h, MTT assay (Cayman™) was used to determine the cellular viability.

Test [2] relates to M10 cells. Kind of test: In vitro cytotoxicity assay (MTT, 72 h). It is filed as cell-based. Particulars: growth inhibition, human normal cell line. As to the method:
as §1

Test [3] deals with MDA-MB-231 cells. Kind of test: In vitro cytotoxicity assay (MTT, 72 h). It is filed as cell-based. Particulars: Homo sapiens, growth inhibition. As to the method: as §1
Test [4] concerns MDA-MB-453 cells. Kind of test: In vitro cytotoxicity assay (MTT, 72 h). Particulars: Homo sapiens, growth inhibition. It counts as cell-based. As to the method:
as §1

The test system of test [5] is SW48 cells. Briefly: In vitro cytotoxicity assay (MTT, 72 h). It is filed as cell-based. Particulars: Homo sapiens, growth inhibition. As to the method: as §1
The target in test [6] is CSF1R (FMS) (Homo sapiens, UniProt P07333). Briefly: Tyrosine kinase inhibition assay. It counts as biochemical. Particulars: for IC50: read-out: IC50 of compound; for inhibition at 1 µM: single concentration 1.0 μM, read-out: percent inhibition. As to the method: (§2) Tyrosine kinase inhibition assays were performed at ThermoFisher Life Technologies (Madison, WI, USA) using standard protocols (SelectScreen Biochemical Profiling Service, Thermo Fisher Scientific). ATP concentrations used were at the apparent Km. Test compounds were screened in 1% dimethylsulffoxide (DMSO) (final concentration) in the well. For 10-point titrations, 3-fold serial dilutions were conducted from the starting concentration of […]. All Peptide/Kinase Mixtures were diluted to a 2× working concentration in the appropriate Kinase Buffer. All ATP Solutions were diluted to a 4× working concentration in Kinase Buffer (50 mM HEPES pH 7.5, 0.01% BRIJ-35, 10 mM MgCl2, 1 mM EGTA). The apparent ATP Km was previously determined using a Z′-LYTE assay. The Development Reagent was diluted in Development Buffer.
(§3) The inhibition activities of compounds were determined in biochemical assays using single concentration (1.0 μM) measurements. The results were provided as percent inhibition values. […] 99 different tyrosine kinases were used.

In test [7] the target is T1, FLT3 (Homo sapiens, UniProt P36888).
T1 sequence (P36888 27-993): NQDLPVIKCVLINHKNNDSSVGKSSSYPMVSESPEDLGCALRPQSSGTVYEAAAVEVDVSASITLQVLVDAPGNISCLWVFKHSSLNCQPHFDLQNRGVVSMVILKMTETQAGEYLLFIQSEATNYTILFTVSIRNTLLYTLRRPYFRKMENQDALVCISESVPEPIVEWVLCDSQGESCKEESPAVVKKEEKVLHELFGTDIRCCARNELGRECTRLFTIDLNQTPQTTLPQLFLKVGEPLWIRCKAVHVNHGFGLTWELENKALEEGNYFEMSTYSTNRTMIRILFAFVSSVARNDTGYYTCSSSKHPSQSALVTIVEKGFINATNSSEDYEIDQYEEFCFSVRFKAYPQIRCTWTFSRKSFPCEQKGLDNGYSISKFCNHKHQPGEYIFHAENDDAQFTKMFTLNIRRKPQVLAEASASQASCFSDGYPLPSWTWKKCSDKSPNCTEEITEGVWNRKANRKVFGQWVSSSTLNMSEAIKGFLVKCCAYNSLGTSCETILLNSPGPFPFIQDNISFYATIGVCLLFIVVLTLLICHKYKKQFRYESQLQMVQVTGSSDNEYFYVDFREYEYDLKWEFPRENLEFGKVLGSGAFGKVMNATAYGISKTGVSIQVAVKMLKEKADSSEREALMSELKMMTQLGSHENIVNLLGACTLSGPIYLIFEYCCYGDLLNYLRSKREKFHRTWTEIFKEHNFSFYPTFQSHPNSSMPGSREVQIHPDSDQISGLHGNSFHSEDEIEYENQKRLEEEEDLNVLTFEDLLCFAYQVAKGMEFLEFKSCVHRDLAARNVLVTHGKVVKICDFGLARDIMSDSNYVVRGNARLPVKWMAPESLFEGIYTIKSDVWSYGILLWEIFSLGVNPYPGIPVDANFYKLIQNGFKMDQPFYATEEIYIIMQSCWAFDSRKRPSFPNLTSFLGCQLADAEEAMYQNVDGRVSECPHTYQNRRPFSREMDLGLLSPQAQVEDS
Kind of test: Tyrosine kinase inhibition assay. It is filed as biochemical. Particulars: for IC50: read-out: IC50 of compound; for inhibition at 1 µM: single concentration 1.0 μM, read-out: percent inhibition. As to the method:
as §2, §3

Test [8] has as its target MST1R (RON) (Homo sapiens, UniProt Q04912). Briefly: Tyrosine kinase inhibition assay. Particulars: for IC50: read-out: IC50 of compound; for inhibition at 1 µM: single concentration 1.0 μM, read-out: percent inhibition. It counts as biochemical. As to the method: as §2, §3
In test [9] the target is TEK (Tie2) (Homo sapiens, UniProt Q02763). Kind of test: Tyrosine kinase inhibition assay. It counts as biochemical. Particulars: for IC50: read-out: IC50 of compound; for inhibition at 1 µM: single concentration 1.0 μM, read-out: percent inhibition. As to the method: as §2, §3
In test [10] the target is T2, TYRO3 (RSE) (Homo sapiens, UniProt Q06418).
T2 sequence (Q06418 41-890): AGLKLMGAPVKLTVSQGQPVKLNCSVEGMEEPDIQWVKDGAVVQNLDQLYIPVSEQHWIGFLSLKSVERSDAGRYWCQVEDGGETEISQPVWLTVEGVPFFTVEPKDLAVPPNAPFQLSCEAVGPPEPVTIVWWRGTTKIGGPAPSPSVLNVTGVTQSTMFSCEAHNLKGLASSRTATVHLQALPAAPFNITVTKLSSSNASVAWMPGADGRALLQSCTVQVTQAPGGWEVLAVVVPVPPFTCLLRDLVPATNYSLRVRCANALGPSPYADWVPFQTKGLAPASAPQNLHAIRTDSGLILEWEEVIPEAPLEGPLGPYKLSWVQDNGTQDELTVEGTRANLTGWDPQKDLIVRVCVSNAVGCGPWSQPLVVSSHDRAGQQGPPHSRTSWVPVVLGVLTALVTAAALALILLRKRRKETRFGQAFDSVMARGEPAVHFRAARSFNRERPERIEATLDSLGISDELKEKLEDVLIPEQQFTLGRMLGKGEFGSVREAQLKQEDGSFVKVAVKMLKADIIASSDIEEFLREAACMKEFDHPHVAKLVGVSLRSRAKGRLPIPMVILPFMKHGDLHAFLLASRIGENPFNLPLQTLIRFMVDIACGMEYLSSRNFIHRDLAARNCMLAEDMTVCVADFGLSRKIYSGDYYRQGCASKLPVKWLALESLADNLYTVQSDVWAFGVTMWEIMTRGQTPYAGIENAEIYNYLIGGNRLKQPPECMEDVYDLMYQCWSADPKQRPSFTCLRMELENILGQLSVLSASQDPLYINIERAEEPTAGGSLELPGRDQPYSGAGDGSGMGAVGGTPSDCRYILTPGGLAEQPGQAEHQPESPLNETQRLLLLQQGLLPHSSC
Briefly: Tyrosine kinase inhibition assay. It is filed as biochemical. Particulars: for inhibition at 1 µM: single concentration 1.0 μM, read-out: percent inhibition. As to the method: as §2, §3

[11] abbreviates: TYRO3 (RSE), read-out: IC50 of compound.

Read-outs that look alike come from different tables or passages of the source.

Sequence of TEK (Tie2) (Q02763 23-1124): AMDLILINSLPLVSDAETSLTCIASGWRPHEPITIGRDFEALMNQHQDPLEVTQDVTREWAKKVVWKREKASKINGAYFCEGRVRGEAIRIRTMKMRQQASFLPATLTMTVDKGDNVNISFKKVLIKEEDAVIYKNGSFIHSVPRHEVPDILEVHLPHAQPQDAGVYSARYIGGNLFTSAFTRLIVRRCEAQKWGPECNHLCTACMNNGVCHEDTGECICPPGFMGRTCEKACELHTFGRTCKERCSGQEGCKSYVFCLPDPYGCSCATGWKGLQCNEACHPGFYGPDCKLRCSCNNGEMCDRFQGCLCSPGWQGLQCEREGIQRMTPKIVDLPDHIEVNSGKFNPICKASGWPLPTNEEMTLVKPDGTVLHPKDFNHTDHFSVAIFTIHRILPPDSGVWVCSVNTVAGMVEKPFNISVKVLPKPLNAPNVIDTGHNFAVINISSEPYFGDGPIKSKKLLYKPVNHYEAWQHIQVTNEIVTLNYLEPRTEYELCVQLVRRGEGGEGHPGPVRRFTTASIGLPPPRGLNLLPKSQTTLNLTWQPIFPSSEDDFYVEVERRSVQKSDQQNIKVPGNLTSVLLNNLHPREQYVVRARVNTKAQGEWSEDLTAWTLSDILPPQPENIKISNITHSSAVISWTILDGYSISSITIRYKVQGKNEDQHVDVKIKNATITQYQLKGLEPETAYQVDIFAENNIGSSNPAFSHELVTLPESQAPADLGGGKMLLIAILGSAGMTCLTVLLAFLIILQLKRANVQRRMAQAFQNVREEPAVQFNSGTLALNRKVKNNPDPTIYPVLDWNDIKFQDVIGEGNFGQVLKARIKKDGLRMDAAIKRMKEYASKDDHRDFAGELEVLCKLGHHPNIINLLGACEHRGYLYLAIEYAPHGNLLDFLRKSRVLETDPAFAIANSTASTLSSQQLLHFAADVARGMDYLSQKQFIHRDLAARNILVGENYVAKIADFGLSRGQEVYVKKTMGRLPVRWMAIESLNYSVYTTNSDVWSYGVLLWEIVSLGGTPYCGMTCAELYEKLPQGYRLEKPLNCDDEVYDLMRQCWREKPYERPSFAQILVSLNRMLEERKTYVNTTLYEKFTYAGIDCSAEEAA
Sequence of MST1R (RON) (Q04912 25-1400): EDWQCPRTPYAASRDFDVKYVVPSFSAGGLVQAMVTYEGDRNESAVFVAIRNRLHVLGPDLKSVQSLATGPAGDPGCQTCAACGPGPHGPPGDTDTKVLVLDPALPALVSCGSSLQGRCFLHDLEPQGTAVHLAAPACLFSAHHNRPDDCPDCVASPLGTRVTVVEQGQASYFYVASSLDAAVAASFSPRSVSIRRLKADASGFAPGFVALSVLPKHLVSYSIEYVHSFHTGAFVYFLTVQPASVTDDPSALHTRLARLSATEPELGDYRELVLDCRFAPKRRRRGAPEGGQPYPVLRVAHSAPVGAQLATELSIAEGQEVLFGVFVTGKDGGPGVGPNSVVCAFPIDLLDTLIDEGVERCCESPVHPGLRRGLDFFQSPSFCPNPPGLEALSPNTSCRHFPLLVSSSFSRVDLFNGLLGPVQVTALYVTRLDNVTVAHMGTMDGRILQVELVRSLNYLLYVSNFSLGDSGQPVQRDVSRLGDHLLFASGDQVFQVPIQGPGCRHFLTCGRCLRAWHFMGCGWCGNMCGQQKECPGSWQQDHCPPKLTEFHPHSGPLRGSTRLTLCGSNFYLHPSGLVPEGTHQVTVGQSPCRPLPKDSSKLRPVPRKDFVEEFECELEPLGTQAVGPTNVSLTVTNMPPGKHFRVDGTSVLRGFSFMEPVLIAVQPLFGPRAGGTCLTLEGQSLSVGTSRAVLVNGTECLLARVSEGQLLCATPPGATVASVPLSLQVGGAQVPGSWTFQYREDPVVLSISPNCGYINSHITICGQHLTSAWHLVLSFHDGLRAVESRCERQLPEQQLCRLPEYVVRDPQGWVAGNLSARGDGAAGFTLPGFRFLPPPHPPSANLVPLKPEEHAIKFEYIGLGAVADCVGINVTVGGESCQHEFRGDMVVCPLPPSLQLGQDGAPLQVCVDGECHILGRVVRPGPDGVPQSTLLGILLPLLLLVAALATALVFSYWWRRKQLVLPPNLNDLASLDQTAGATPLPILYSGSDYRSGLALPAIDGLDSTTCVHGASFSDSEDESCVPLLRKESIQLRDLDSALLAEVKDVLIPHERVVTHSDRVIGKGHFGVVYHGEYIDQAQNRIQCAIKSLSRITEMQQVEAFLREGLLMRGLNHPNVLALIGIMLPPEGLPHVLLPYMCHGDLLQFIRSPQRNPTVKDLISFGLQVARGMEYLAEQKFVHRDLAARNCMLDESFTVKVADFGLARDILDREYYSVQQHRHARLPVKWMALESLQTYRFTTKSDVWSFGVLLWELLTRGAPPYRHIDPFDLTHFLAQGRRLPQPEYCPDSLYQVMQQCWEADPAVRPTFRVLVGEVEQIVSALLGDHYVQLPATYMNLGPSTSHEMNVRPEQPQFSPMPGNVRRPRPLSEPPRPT
Sequence of CSF1R (FMS) (P07333 20-972): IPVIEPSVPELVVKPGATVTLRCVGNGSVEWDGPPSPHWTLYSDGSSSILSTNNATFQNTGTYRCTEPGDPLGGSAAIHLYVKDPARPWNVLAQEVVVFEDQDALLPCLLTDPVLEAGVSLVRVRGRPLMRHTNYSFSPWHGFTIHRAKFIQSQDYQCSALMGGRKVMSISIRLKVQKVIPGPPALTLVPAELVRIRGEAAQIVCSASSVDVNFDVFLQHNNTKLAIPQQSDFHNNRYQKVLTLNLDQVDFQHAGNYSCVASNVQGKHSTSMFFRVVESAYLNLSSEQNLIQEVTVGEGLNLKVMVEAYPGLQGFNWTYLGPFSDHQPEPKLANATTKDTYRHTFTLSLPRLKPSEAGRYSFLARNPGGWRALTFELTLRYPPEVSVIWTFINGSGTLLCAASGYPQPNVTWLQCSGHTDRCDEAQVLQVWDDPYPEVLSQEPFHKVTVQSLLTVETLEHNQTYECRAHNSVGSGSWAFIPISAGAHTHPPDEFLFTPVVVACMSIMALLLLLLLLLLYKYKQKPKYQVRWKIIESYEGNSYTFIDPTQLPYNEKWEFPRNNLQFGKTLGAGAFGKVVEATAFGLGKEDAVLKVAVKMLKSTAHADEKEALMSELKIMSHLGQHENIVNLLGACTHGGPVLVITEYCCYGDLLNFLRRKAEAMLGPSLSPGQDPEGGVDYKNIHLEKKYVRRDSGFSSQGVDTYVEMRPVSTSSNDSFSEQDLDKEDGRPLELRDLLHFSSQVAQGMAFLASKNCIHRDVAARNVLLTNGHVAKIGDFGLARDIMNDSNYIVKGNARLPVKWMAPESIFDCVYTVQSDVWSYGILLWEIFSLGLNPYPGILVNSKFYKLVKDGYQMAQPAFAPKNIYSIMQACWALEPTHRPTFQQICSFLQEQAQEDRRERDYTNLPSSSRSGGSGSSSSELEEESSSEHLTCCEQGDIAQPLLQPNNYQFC

Regarding `CNC(=O)c1cc2c(Oc3ccc(NC(=O)C4(C(=O)Nc5ccc(F)cc5)CC4)cc3)ccnc2cc1OC` [Zanzalintinib, reference compound], the half-maximal inhibitory concentration (IC50) in test [1] was 7.58 ± 0.18 µM; in [2], 3.28 ± 1.84 µM; in test [3] it was 6.17 ± 0.15 µM; in test [4] it was 22.6 ± 1.05 µM; in test [5], 6.86 ± 0.26 µM; in [6], 0.0163 µM. Also, the half-inhibitory concentration (IC50) amounted to 0.00543 µM in test [7], 0.135 µM in test [8], 0.15 µM in [9] and 0.00949 µM in test [10] (setting [11]).
Consider `COc1cc2nccc(Oc3ccc(NC(=O)C4(C(=O)Nc5ccc(F)cc5)CC4)cc3)c2cc1OC` [Cabozantinib, reference compound], for which the half-maximal inhibitory concentration (IC50) in [1] was 4.05 ± 0.46 µM; in test [2] it was 9.57 ± 1.62 µM; in test [3], 8.72 ± 1.08 µM; in test [4] it was 20.5 ± 4.48 µM; in test [5] it was 4.33 ± 0.33 µM; in test [6] it was 0.0119 µM. Moreover, the IC50 in test [10] is 0.0091 µM. The inhibition at 1 µM stood at 88% in test [6], 90% in test [7], 95% in [8] and 89% in test [9].
In the case of `COc1cc2nccc(Oc3ccc(NC(=O)C4(C(=O)Nc5ccc(F)cc5)CC4)cc3F)c2cc1Oc1ccc(N)cc1F` [Cbo-23], the IC50 in [1] is 1.69 ± 0.13 µM; in test [2] it was 1.01 ± 0.02 µM; in test [3] it was 1.95 ± 1.95 µM; in [4], 1.71 ± 0.14 µM; in test [5] it was 0.79 ± 0.005 µM; in test [6], 0.0402 µM. In addition, the IC50 was found to be 0.0248 µM in [7], 0.0515 µM in test [8], 0.0631 µM in [9] and 0.0125 µM in test [10] (setting [11]). For the same molecule, the inhibition at 1 µM in test [6] stood at 99%; in test [7], 99%; in test [8] it was 101%; in [9], 95%; in test [10] (TYRO3 (RSE)), 100%.
With `COc1cc2nccc(Oc3ccc(NC(=O)C4(NC(=O)c5ccc(F)cc5)CC4)cc3F)c2cc1Oc1ccc(N)cc1F` [Cbo-10], the IC50 in [1] stood at 1.18 ± 0.036 µM; in test [2], 0.911 ± 0.025 µM; in [3] it was 2.45 ± 0.14 µM; in test [4], 4.67 ± 0.28 µM; in test [5], 0.79 ± 0.001 µM. Also, the inhibition at 1 µM in [6] came out at 96%; in test [7], 70%; in test [8], 100%; in test [9], 85%; in [10] (TYRO3 (RSE)) it was 87%.
For the molecule `COc1cc2nccc(Oc3ccc(NC(=O)C4(NC(=O)c5ccc(F)cc5)CC4)cc3F)c2cc1OC` [Cbo-02, N-(1-((4-((6,7-diMethoxyquinolin-4-yl)oxy)-3-fluorophenyl)carbamoyl)cyclopropyl)-4-fluorobenzamide], the IC50 in test [1] is 1.51 ± 0.057 µM; in test [2], 3.92 ± 0.25 µM; in test [3], 5.64 ± 0.36 µM; in [4], 5.31 ± 0.57 µM; in test [5], 0.82 ± 0.011 µM. Also, the inhibition at 1 µM in test [6] is 83%; in test [7] it was 56%; in test [8], 96%; in test [9] it was 77%; in test [10] (TYRO3 (RSE)) it was 58%.
In the case of `COc1cc2nccc(Oc3ccc(NC(=O)C4(NC(=O)c5ccc(F)cc5)CC4)cc3F)c2cc1Oc1c(F)cc(N)cc1F` [Cbo-14], the IC50 in [1] was found to be 1.23 ± 0.034 µM; in [2], 0.92 ± 0.008 µM; in [3], 14.4 ± 5.3 µM; in test [4], 2.68 ± 0.75 µM; in test [5], 0.79 ± 0.001 µM. Further, the inhibition at 1 µM in test [6] is 93%; in [7], 81%; in [8], 100%; in [9] it was 90%; in test [10] (TYRO3 (RSE)), 89%.

What is called IC50 is the point on the concentration scale where inhibition reaches its midpoint. What is called inhibition is the drop in the measured response relative to a control, in per cent.
